The source of these data is ChEMBL document CHEMBL1143757, “Synthesis and inhibitory activity of new benzimidazole derivatives against Burkitt's lymphoma promotion” (2007).

One experiment relates to Raji. Description: Cytotoxicity against Raji cells assessed as cell viability at 32 nmol relative to control. Format: functional, Homo sapiens.
Experiment [1] relates to Human gammaherpesvirus 4. Description: Inhibition of TPA-induced Epstein-Barr virus early antigen activation in Raji cells at 32 nmol relative to control; values are per cent of control.
Experiment [2] concerns Human gammaherpesvirus 4. In words: Inhibition of TPA-induced Epstein-Barr virus early antigen activation in Raji cells at 16 nmol relative to control; values are per cent of control.
Experiment [3] deals with Human gammaherpesvirus 4. In words: Inhibition of TPA-induced Epstein-Barr virus early antigen activation in Raji cells at 3.2 nmol relative to control; values are per cent of control.
Experiment [4] deals with Human gammaherpesvirus 4. Description: Inhibition of TPA-induced Epstein-Barr virus early antigen activation in Raji cells at 0.32 nmol relative to control; values are per cent of control.

`Cc1nc2cc(N3C(=O)CSC3c3cccc4ccccc34)ccc2[nH]1` (stereo not given): in the experiment on Raji, the Activity stood at 60%. For the same molecule, the “level, % of control” value with Human gammaherpesvirus 4 [1] is on record as 17.1%; with Human gammaherpesvirus 4 [2], 61%; in the experiment on Human gammaherpesvirus 4 [3], 85.1%; with Human gammaherpesvirus 4 [4] it was 100%.

With `Cc1nc2cc([N+](=O)[O-])ccc2n1Cc1ccccc1`, the Activity in the experiment with Raji is 60%. Further, the “level, % of control” value came out at 18.3% in the experiment with Human gammaherpesvirus 4 [1], 62.4% in the experiment on Human gammaherpesvirus 4 [2], 87.4% in the experiment on Human gammaherpesvirus 4 [3] and 100% with Human gammaherpesvirus 4 [4].

Take `Cc1nc2cc(N3C(=O)CSC3c3ccc4c(c3)OCO4)ccc2[nH]1` (stereo not given): the Activity with Raji is on record as 60%. For the same molecule, the “level, % of control” value was 21.6% with Human gammaherpesvirus 4 [1], 65% in the experiment with Human gammaherpesvirus 4 [2], 88.4% with Human gammaherpesvirus 4 [3] and 100% in the experiment on Human gammaherpesvirus 4 [4].

As for `Cc1nc2cc(N3C(=O)CSC3c3cccs3)ccc2[nH]1` (stereo not given), the Activity with Raji stood at 60%. The “level, % of control” value in the experiment with Human gammaherpesvirus 4 [1] is 22.1%; in the experiment on Human gammaherpesvirus 4 [2], 66.5%; in the experiment on Human gammaherpesvirus 4 [3], 88.9%; with Human gammaherpesvirus 4 [4], 100%.

In the case of `Cc1nc2cc(/N=C\c3ccc(C)o3)ccc2[nH]1`, the Activity with Raji is 60%. In addition, the “level, % of control” value came to 18% in the experiment on Human gammaherpesvirus 4 [1], 62% in the experiment on Human gammaherpesvirus 4 [2], 86.2% in the experiment on Human gammaherpesvirus 4 [3] and 100% in the experiment on Human gammaherpesvirus 4 [4].

In the case of `Cc1nc2cc(/N=C\c3ccc4c(c3)OCO4)ccc2[nH]1`, in the experiment on Raji, the Activity is given as 60%. The “level, % of control” value in the experiment on Human gammaherpesvirus 4 [1] came to 15.1%; in the experiment with Human gammaherpesvirus 4 [2] it was 60.2%; in the experiment on Human gammaherpesvirus 4 [3] it was 85.4%; in the experiment with Human gammaherpesvirus 4 [4] it was 100%.

With `CNC(=S)Nc1ccc2c(c1)nc(C)n2Cc1ccccc1`, in the experiment on Raji, the Activity was 60%. Further, the “level, % of control” value in the experiment on Human gammaherpesvirus 4 [1] is 13.2%; with Human gammaherpesvirus 4 [2], 58.1%; in the experiment on Human gammaherpesvirus 4 [3], 80%; in the experiment with Human gammaherpesvirus 4 [4], 100%.

In the case of `CCNC(=S)Nc1ccc2c(c1)nc(C)n2Cc1ccccc1`, the Activity with Raji stood at 60%. Besides, the “level, % of control” value is recorded as 14% with Human gammaherpesvirus 4 [1], 59.6% in the experiment on Human gammaherpesvirus 4 [2], 81.2% with Human gammaherpesvirus 4 [3] and 100% in the experiment with Human gammaherpesvirus 4 [4].

`Cc1nc2cc(NC(=S)NC(=O)c3ccccc3)ccc2n1Cc1ccccc1`: the Activity in the experiment with Raji amounted to 60%. The “level, % of control” value in the experiment on Human gammaherpesvirus 4 [1] is given as 17.8%; with Human gammaherpesvirus 4 [2], 60.6%; with Human gammaherpesvirus 4 [3] it was 82%; in the experiment with Human gammaherpesvirus 4 [4] it was 100%.

As for `COc1ccc(NC(=S)Nc2ccc3c(c2)nc(C)n3Cc2ccccc2)cc1`, the Activity in the experiment on Raji came to 60%. Moreover, the “level, % of control” value amounted to 13.5% in the experiment with Human gammaherpesvirus 4 [1], 53.1% in the experiment with Human gammaherpesvirus 4 [2], 78.3% in the experiment with Human gammaherpesvirus 4 [3] and 100% in the experiment on Human gammaherpesvirus 4 [4].

Consider `CCN1C(=O)CS/C1=N/c1ccc2c(c1)nc(C)n2Cc1ccccc1`, for which the Activity in the experiment on Raji amounted to 60%. Moreover, the “level, % of control” value in the experiment on Human gammaherpesvirus 4 [1] came to 18.3%; in the experiment with Human gammaherpesvirus 4 [2] it was 54.2%; with Human gammaherpesvirus 4 [3] it was 81.1%; in the experiment on Human gammaherpesvirus 4 [4], 100%.

Take `Cc1nc2cc(/N=C\c3c[nH]c4ccccc34)ccc2[nH]1`: in the experiment on Raji, the Activity is 60%. The “level, % of control” value in the experiment with Human gammaherpesvirus 4 [1] was determined as 18.4%; in the experiment with Human gammaherpesvirus 4 [2], 62.1%; with Human gammaherpesvirus 4 [3], 86.1%; in the experiment with Human gammaherpesvirus 4 [4], 100%.

On to `Cc1nc2cc(/N=C\c3cccc4ccccc34)ccc2[nH]1`, for which, in the experiment on Raji, the Activity was 60%. For the same molecule, the “level, % of control” value in the experiment with Human gammaherpesvirus 4 [1] was determined as 20.6%; with Human gammaherpesvirus 4 [2] it was 65.8%; in the experiment on Human gammaherpesvirus 4 [3], 89.6%; in the experiment with Human gammaherpesvirus 4 [4], 100%.

With `Cc1nc2cc(/N=C3/SCC(=O)N3C(=O)c3ccccc3)ccc2n1Cc1ccccc1`, the Activity with Raji is reported as 60%. The “level, % of control” value in the experiment with Human gammaherpesvirus 4 [1] is 12.3%; in the experiment on Human gammaherpesvirus 4 [2], 52.5%; with Human gammaherpesvirus 4 [3] it was 82.5%; in the experiment on Human gammaherpesvirus 4 [4], 100%.

Turning to `COc1ccc(N2C(=O)CS/C2=N/c2ccc3c(c2)nc(C)n3Cc2ccccc2)cc1`, in the experiment with Raji, the Activity came out at 60%. The “level, % of control” value in the experiment on Human gammaherpesvirus 4 [1] is listed as 13.2%; in the experiment on Human gammaherpesvirus 4 [2] it was 53%; in the experiment on Human gammaherpesvirus 4 [3] it was 78%; with Human gammaherpesvirus 4 [4] it was 100%.

On to `Cc1nc2ccccc2[nH]1`, for which the Activity in the experiment with Raji worked out at 60%. Besides, the “level, % of control” value was 19.6% with Human gammaherpesvirus 4 [1], 63.6% in the experiment with Human gammaherpesvirus 4 [2], 88.3% with Human gammaherpesvirus 4 [3] and 100% in the experiment with Human gammaherpesvirus 4 [4].

With `Cc1nc2cc([N+](=O)[O-])ccc2[nH]1`, the Activity in the experiment on Raji came out at 60%. For the same molecule, the “level, % of control” value in the experiment on Human gammaherpesvirus 4 [1] was 18.4%; in the experiment on Human gammaherpesvirus 4 [2], 62.5%; with Human gammaherpesvirus 4 [3], 88%; with Human gammaherpesvirus 4 [4], 100%.

Consider `Cc1ccc(C2SCC(=O)N2c2ccc3[nH]c(C)nc3c2)cc1` (stereo not given), for which the Activity with Raji was 60%. Besides, the “level, % of control” value in the experiment on Human gammaherpesvirus 4 [1] is 23.1%; in the experiment on Human gammaherpesvirus 4 [2] it was 66.1%; in the experiment with Human gammaherpesvirus 4 [3], 88.9%; with Human gammaherpesvirus 4 [4], 100%.

As to `Cc1nc2cc(/N=C3/SCC(=O)N3C)ccc2n1Cc1ccccc1`, the Activity in the experiment with Raji turned out to be 60%. In addition, the “level, % of control” value in the experiment on Human gammaherpesvirus 4 [1] was determined as 20.7%; with Human gammaherpesvirus 4 [2], 61.2%; in the experiment with Human gammaherpesvirus 4 [3] it was 83.4%; in the experiment with Human gammaherpesvirus 4 [4], 100%.

As to `Cc1nc2cc(N3C(=O)CSC3c3ccc(C)o3)ccc2[nH]1` (stereo not given), the Activity in the experiment on Raji stood at 60%. Moreover, the “level, % of control” value in the experiment on Human gammaherpesvirus 4 [1] came out at 20.9%; in the experiment with Human gammaherpesvirus 4 [2], 65.1%; with Human gammaherpesvirus 4 [3], 87.7%; with Human gammaherpesvirus 4 [4], 100%.

For the molecule `Cc1nc2cc(N3C(=O)CSC3c3c[nH]c4ccccc34)ccc2[nH]1` (stereo not given), in the experiment with Raji, the Activity is recorded as 60%. Moreover, the “level, % of control” value in the experiment on Human gammaherpesvirus 4 [1] turned out to be 21.8%; in the experiment on Human gammaherpesvirus 4 [2], 65.9%; with Human gammaherpesvirus 4 [3], 87.1%; with Human gammaherpesvirus 4 [4], 100%.

Consider `Cc1nc2cc(/N=C3/SCC(=O)N3c3ccccc3)ccc2n1Cc1ccccc1`, for which the Activity in the experiment on Raji came out at 60%. The “level, % of control” value with Human gammaherpesvirus 4 [1] was 19.4%; in the experiment on Human gammaherpesvirus 4 [2], 61%; in the experiment on Human gammaherpesvirus 4 [3], 82.5%; in the experiment with Human gammaherpesvirus 4 [4], 100%.

As to `Cc1nc2cc(NC(=S)Nc3ccccc3)ccc2n1Cc1ccccc1`, the Activity with Raji is 60%. Also, the “level, % of control” value was 15.3% with Human gammaherpesvirus 4 [1], 60.2% in the experiment with Human gammaherpesvirus 4 [2], 83.1% with Human gammaherpesvirus 4 [3] and 100% with Human gammaherpesvirus 4 [4].

Turning to `Cc1ccc(/C=N\c2ccc3[nH]c(C)nc3c2)cc1`, the Activity in the experiment on Raji is recorded as 60%. The “level, % of control” value with Human gammaherpesvirus 4 [1] is given as 19.3%; in the experiment on Human gammaherpesvirus 4 [2] it was 64.5%; with Human gammaherpesvirus 4 [3], 89.1%; with Human gammaherpesvirus 4 [4], 100%.

Turning to `Cc1nc2cc(/N=C\c3cccs3)ccc2[nH]1`, the Activity in the experiment on Raji is reported as 60%. Besides, the “level, % of control” value is given as 22% with Human gammaherpesvirus 4 [1], 65.5% with Human gammaherpesvirus 4 [2], 89.1% in the experiment on Human gammaherpesvirus 4 [3] and 100% in the experiment with Human gammaherpesvirus 4 [4].

For the molecule `Cc1nc2cc(N)ccc2[nH]1.Cl`, in the experiment with Raji, the Activity amounted to 60%. The “level, % of control” value is listed as 20.3% in the experiment on Human gammaherpesvirus 4 [1], 64.3% in the experiment with Human gammaherpesvirus 4 [2], 88.9% in the experiment on Human gammaherpesvirus 4 [3] and 100% in the experiment with Human gammaherpesvirus 4 [4].

Consider `Cc1nc2cc(N)ccc2n1Cc1ccccc1.Cl`, for which the Activity with Raji was 60%. The “level, % of control” value with Human gammaherpesvirus 4 [1] is recorded as 18.5%; in the experiment with Human gammaherpesvirus 4 [2], 62.2%; in the experiment with Human gammaherpesvirus 4 [3], 86.3%; in the experiment with Human gammaherpesvirus 4 [4], 100%.
